Laboratory results published in ChEMBL document CHEMBL1157539, “Thousands of chemical starting points for antimalarial lead identification” (Nature, 2010).

tested on: Plasmodium falciparum; assay: GSK_TCMDC: Inhibition of Plasmodium falciparum 3D7 in whole erythrocytes, using parasite LDH activity as an index of growth.; assay type: functional, organism-based; conditions: Plasmodium falciparum, 3D7

Going from `COc1cccc(CNC[C@@H](O)[C@H](Cc2ccccc2)NC(=O)c2cc3c4c(c2)c(C(C)C)cn4CCS(=O)(=O)N3C)c1` to `CCCN(CCC)C(=O)c1cc(C(=O)N[C@@H](Cc2ccccc2)[C@H](O)CNC(C)(C)c2cccc(OC)c2)cc(N2CCCCS2(=O)=O)c1`, the XC50 falls from 154 nM to 29.8 nM (5.2-fold).

Going from `CC(=O)Nc1cccc(C(=O)Nc2ccc(-c3cccc(-c4nc5cc(C(F)(F)F)ccc5[nH]4)c3)cc2)c1` to `CC(=O)Nc1nc(C(=O)Nc2cccc(-c3ccc(-c4nc5ccccc5[nH]4)cc3)c2)cs1`, the XC50 rises from 148 nM to 421 nM (2.8-fold).

First: COc1ccc2[nH]cc(C3=CCN(CC4CC4C(=O)c4ccccc4)CC3)c2n1 (centres undefined)
Second: Oc1ccc2[nH]c(-c3cccs3)nc2c1CN1CCC(O)(c2ccccc2)CC1
The XC50 of the first is 2.9-fold lower: 270 nM for the first, 782 nM for the second.

`O=C(Nc1nc2ccc(Cl)cc2s1)c1csnn1` and `CC(=O)c1sc(Cc2nc3ccccc3s2)nc1C` are within 1.5-fold of each other in XC50: 786 nM for the first, 1070 nM for the second.

Compared with `CCCCN(C(=O)c1ccccc1C)c1nnc(-c2ccccc2C)s1`, `CCN(CC)c1ccccc1CNC(=O)c1cc(Cl)c(N)cc1OC` is 4.4-fold lower in XC50: 927 nM for the first, 213 nM for the second.

Compared with `C=CCC(C)n1ncc2c3c(N)nc(N)nc3ccc21` (centres undefined), `CN(C)CCNc1ncnc2c1[nH]c1ccc(Cl)cc12` is 12-fold higher in XC50: 50 nM for the first, 601 nM for the second.

First: Cn1cncc1-c1cc2c(Nc3ccc(OCc4ccccc4)cc3)ncnc2cn1
Second: CC(C)Nc1nc(NCCc2c[nH]cn2)nc(Nc2ccc(Oc3ccccc3)cc2)n1
The XC50 of the first is 3.3-fold lower: 268 nM for the first, 887 nM for the second.

Going from `CCOc1ccc2[nH]c(-c3ccccc3)cc(=NN=Cc3ccncc3)c2c1` to `CN(C)CCN(C)Cc1ccc(-c2cccc(-c3nc4ccccc4[nH]3)c2)cc1`, the XC50 rises from 149 nM to 751 nM (5-fold).

`Clc1ccccc1OCc1ccccn1` and `c1ccc(COc2ccc(C3CCCCC3)cc2)nc1` are within 1.5-fold of each other in XC50: 994 nM for the first, 774 nM for the second.

`COc1cc(C(=O)N2N=C(c3c(-c4ccccc4)c4cc(Br)ccc4[nH]c3=O)CC2c2cccc([N+](=O)[O-])c2)cc(OC)c1OC` (centres undefined) and `COc1cc2c(cc1OC)C(C(=O)Nc1cc(OC)c(OC)c(OC)c1)C(c1ccc(SC)cc1)N(C)C2=O` (centres undefined) are within 1.5-fold of each other in XC50: 943 nM for the first, 986 nM for the second.

First: O=S(=O)(Nc1cccc(CCN2CCC(N3CCCCC3)CC2)c1)c1ccc2c(c1)OCCO2
Second: O=C(Nc1ccc2c(c1)CCN2C1CCN(Cc2cccc(F)c2F)C1)c1ccco1 (centres undefined)
The XC50 of the first is 1.6-fold higher: 1230 nM for the first, 787 nM for the second.

`Cc1cccc2nc(-c3ccc(-c4ccc(CNCCNC(=O)c5ccnn5C)cc4)cc3)[nH]c12` and `CN1CCN(c2cc(NC(=O)c3ccc(-c4ccc(C#N)cc4)cc3)ccc2Cl)CC1` are within 1.5-fold of each other in XC50: 480 nM for the first, 464 nM for the second.

First: Cc1ccc2nc(N/C(N)=N/C(=O)NC3CCCCC3)nc(C)c2c1
Second: Oc1ccc2ccccc2c1CNCCC1CCCCC1
The XC50 of the first is 3.6-fold higher: 624 nM for the first, 174 nM for the second.

`COc1cc(C(=O)NCCCN2CCN(c3cc(Cl)ccc3OC)CC2)ccc1-c1nc2cc(Cl)c(Cl)cc2[nH]1` and `COc1ccc(NC(=O)c2ccc3cc4ccccc4cc3c2)cc1N1CCN(C)CC1` are within 1.5-fold of each other in XC50: 731 nM for the first, 1030 nM for the second.

First: COc1cccc(C(=O)OC2=C3CCC(=O)C3(C)CCC2=O)c1 (centres undefined)
Second: COc1ccc(C(C(=O)NC2CCN(C[C@H](O)c3ccnc4ccc(OC)cc34)CC2)N2CCc3ccccc3C2)cc1 (some centres undefined)
The XC50 of the first is 8.9-fold lower: 77.9 nM for the first, 697 nM for the second.

`Cc1ccc(CN2CCCN(Cc3cccc(C(=O)Nc4ccc(C(C)(C)C)cc4)c3)CC2)s1` and `Cc1cccc(CN2CCC(CNC(=O)c3cc4c(-c5ccccc5F)nn(C)c4s3)CC2)c1` are within 1.5-fold of each other in XC50: 1130 nM for the first, 1090 nM for the second.

`CC(=O)C1(c2ccccc2)CCN(CCC2(c3ccc(Cl)c(Cl)c3)CN(C(=O)Nc3cccc(C(F)(F)F)c3)CCO2)CC1` (centres undefined) and `O=C1COc2ccccc2N1CCN1CCC(NCc2ccc(-c3cccs3)cc2)CC1` are within 1.5-fold of each other in XC50: 1050 nM for the first, 1430 nM for the second.

First: CC(C)C[C@H](NC(=O)c1cc(-c2ccc(C(C)(C)C)cc2)no1)C(=O)O.CC(C)C[C@H](NC(=O)c1conc1-c1ccc(C(C)(C)C)cc1)C(=O)O
Second: C=CCc1ccc(C[C@H](NC(=O)OC(C)(C)C)C(=O)OC)cc1
The XC50 of the first is 4.4-fold lower: 186 nM for the first, 814 nM for the second.

`O=C(NCCc1ccccc1)N(Cc1ccccc1-c1ccc(CNCCc2ccccc2)cc1)C1CCN(Cc2ccccc2)CC1` and `O=C(NC1CC1)c1ccc(N2CCC(Cc3ccccc3)CC2)nc1` are within 1.5-fold of each other in XC50: 716 nM for the first, 761 nM for the second.

With `C/N=C(/Nc1c(Cl)cccc1Cl)N(C)C` the XC50 was 820 nM.
